Reference: patent US20110159479A1, “GENETIC POLYMORPHISMS IN THE CYTOCHROME P450 GENE WITH CLOPIDOGREL RESISTANCE” (Industry-University Cooperation Foundation Yonsei University, priority 2009, published 2011)
Each block holds one compound with its values, some of them ahead of it.

How the values were obtained:
[1] = VerifyNow P2Y12 platelet-function assay in CAD patients with drug-eluting stents on clopidogrel; format: in vivo, human
From the text: (§1) From October 2006 to July 2007, 450 consecutive patients who underwent successful percutaneous coronary intervention (PCI) with drug-eluting stents (DES) were randomly assigned to treatment with dual anti-platelet regimens (aspirin plus clopidogrel, n=225) or triple antiplatelet regimens (aspirin plus clopidogrel plus cilostazol, n=225). Inclusion criteria were: symptomatic coronary artery disease (CAD) or documented myocardial ischemia (by treadmill exercise testing or sestamibi scan); angiographic evidence of 50% diameter stenosis and post procedure Thromobolysis In Myocardial Infarction (TIMI) flow grade 3. Exclusion criteria were: contraindication to antiplatelet agents; previous allergy or intolerance of aspirin or clopidogrel; treatment with warfarin; active bleeding; known platelet dysfunction; abnormal platelet count (<100,000/mm^3). Patients received a 300 mg loading dose of clopidogrel at least 12 hours before the stenting. Stents were deployed according to standard techniques. The maintenance dose for each antiplatelet agent was 100 mg once a day for aspirin, 75 mg once a day for clopidogrel, and 100 mg twice a day for cilostazol. Among the enrolled patients, 387 patients were analyzed for clopidogrel resistance by VerifyNow P2Y12 system (Accumetrics, San Diego, Calif.), and blood sampling for genetic analysis.
(§2) The VerifyNow P2Y12 system is a rapid platelet-function, cartridge based assay designed to directly measure the effects of clopidogrel on the P2Y12 receptor. Results are expressed as P2Y12 reaction units (PRUs) and percentage inhibition. PRU reports the amount of P2Y12 receptor mediated aggregation.
(§3) Values were expressed as mean±SD. Chi-square test for goodness of fit was used to verify agreement with Hardy-Weinberg equilibrium (HWE) using Fisher's exact test. Comparison of discrete variables was performed using the Chi-square test analysis or Fisher's exact test. Comparison of continuous variables between the two study groups was performed using the Student's t-test. Multivariate logistic regression analysis was performed to determine the independent association of CYP gene polymorphisms with clopidogrel resistance. Odds ratios (ORs) were calculated with 95% confidence intervals (CIs) for the relative risk of clopidogrel resistance related to genotypes. Statistical analysis was performed with SPSS 15.0 (SPSS Inc, Chicago, Ill.). All values of P<0.05 were considered statistically significant.

[2] = patients following coronary stenting; previous reports; cited from earlier work
P2Y12 receptor = molecular target: T1, P2Y12 receptor (Homo sapiens, UniProt Q9H244); assay: VerifyNow P2Y12 platelet-function assay in CAD patients with drug-eluting stents on clopidogrel; format: in vivo; conditions: for % inhibition of platelet activity: mean ± SD; for Rate of clopidogrel resistance: subjects with CYP2C19*3 A allele
T1 construct: PRU reports the amount of P2Y12 receptor mediated aggregation; from tissue; host or cells: platelets in blood of patients (VerifyNow P2Y12 system, Accumetrics)
From the text: as §1, §2, §3

T1 sequence (Q9H244 whole entry): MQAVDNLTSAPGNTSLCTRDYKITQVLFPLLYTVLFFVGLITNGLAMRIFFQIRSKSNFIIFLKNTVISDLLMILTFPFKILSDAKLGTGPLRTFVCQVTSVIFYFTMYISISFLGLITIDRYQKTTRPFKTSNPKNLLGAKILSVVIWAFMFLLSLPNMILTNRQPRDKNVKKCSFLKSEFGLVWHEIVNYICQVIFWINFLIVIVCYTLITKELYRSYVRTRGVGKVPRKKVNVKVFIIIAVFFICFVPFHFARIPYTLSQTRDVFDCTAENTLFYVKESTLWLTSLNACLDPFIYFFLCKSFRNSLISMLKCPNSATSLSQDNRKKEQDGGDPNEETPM

- Patients on cilostazol, number (percentage of group) ([1]; clopidogrel resistant group (Resistance)): 32 (28.6%)
- Patients on cilostazol, number (percentage of group) ([1]; clopidogrel responsive group (No resistance)): 158 (57.5%)
SMILES: O=C1CCc2cc(OCCCCc3nnnn3C3CCCCC3)ccc2N1 [Cilostazol]

- Clopidogrel resistance (percent inhibition <20%), proportion of patients (P2Y12 receptor; 387 CAD patients with DES insertion, 112 patients): 28.9%
- % inhibition of platelet activity (P2Y12 receptor; CYP1A1 rs1048943, codominant, genotype AA (211)): 32.5 ± 22.3%
- % inhibition of platelet activity (P2Y12 receptor; CYP1A1 rs1048943, codominant, genotype AG (153)): 37.7 ± 24.2%
- % inhibition of platelet activity (P2Y12 receptor; CYP1A1 rs1048943, codominant, genotype GG (20)): 38.7 ± 24.4%
- % inhibition of platelet activity (P2Y12 receptor; CYP1A1 rs1048943, dominant, genotype AA (210)): 32.5 ± 22.3%
- % inhibition of platelet activity (P2Y12 receptor; CYP1A1 rs1048943, dominant, genotype AG/GG (170)): 37.8 ± 24.2%
- % inhibition of platelet activity (P2Y12 receptor; CYP1A1 rs1048943, recessive, genotype AA/AG (361)): 34.7 ± 23.2%
- % inhibition of platelet activity (P2Y12 receptor; CYP1A1 rs1048943, recessive, genotype GG (19)): 38.7 ± 24.4%
- % inhibition of platelet activity (P2Y12 receptor; CYP2C19*2 rs4244285, codominant, genotype AA (39)): 30.9 ± 21.7%
- % inhibition of platelet activity (P2Y12 receptor; CYP2C19*2 rs4244285, codominant, genotype GA (133)): 32.5 ± 21.6%
- % inhibition of platelet activity (P2Y12 receptor; CYP2C19*2 rs4244285, codominant, genotype GG (210)): 37.2 ± 24.5%
- % inhibition of platelet activity (P2Y12 receptor; CYP2C19*2 rs4244285, dominant, genotype GA/AA (172)): 32.1 ± 21.6%
- % inhibition of platelet activity (P2Y12 receptor; CYP2C19*2 rs4244285, dominant, genotype GG (210)): 37.2 ± 24.5%
- % inhibition of platelet activity (P2Y12 receptor; CYP2C19*2 rs4244285, recessive, genotype AA (39)): 30.9 ± 21.7%
- % inhibition of platelet activity (P2Y12 receptor; CYP2C19*2 rs4244285, recessive, genotype GG/GA (343)): 35.3 ± 23.5%
- % inhibition of platelet activity (P2Y12 receptor; CYP2C19*3 rs4986893, codominant, genotype AA (2)): 17.0 ± 24.0%
- % inhibition of platelet activity (P2Y12 receptor; CYP2C19*3 rs4986893, codominant, genotype GA (68)): 24.9 ± 20.1%
- % inhibition of platelet activity (P2Y12 receptor; CYP2C19*3 rs4986893, codominant, genotype GG (316)): 36.9 ± 23.4%
- % inhibition of platelet activity (P2Y12 receptor; CYP2C19*3 rs4986893, dominant, genotype GA/AA (70)): 24.6 ± 20.0%
- % inhibition of platelet activity (P2Y12 receptor; CYP2C19*3 rs4986893, dominant, genotype GG (316)): 36.9 ± 23.4%
- % inhibition of platelet activity (P2Y12 receptor; CYP2C19*3 rs4986893, recessive, genotype AA (2)): 17.0 ± 24.0%
- % inhibition of platelet activity (P2Y12 receptor; CYP2C19*3 rs4986893, recessive, genotype GG/GA (384)): 34.8 ± 23.3%
- Rate of clopidogrel resistance (P2Y12 receptor; dual regimen therapy (aspirin plus clopidogrel)): 57.6%
- Rate of clopidogrel resistance (P2Y12 receptor; triple regimen therapy (aspirin plus clopidogrel plus cilostazol)): 37.1%
SMILES: COC(=O)[C@H](c1ccccc1Cl)N1CCc2sccc2C1 [clopidogrel, (+)-(S)-methyl 2-(2-chlorophenyl)-2-(6,7-dihydrothieno[3,2-c]pyridin-5(4H)-yl)acetate]
- Prevalence of clopidogrel nonresponsiveness [2]: 5-44%
